# Measurements as given in the supplement of paper PMC9103864.
# Columns and labels:
# [1] = test system: BMSC (primary human bone marrow mesenchymal stromal cells); assay: absolute EC50 for viability; higher = less sensitive
# [2] = test system: BMSC (primary human bone marrow mesenchymal stromal cells); assay: drug sensitivity score (DSS); higher = more sensitive
Compound,absolute EC50 for viability [1] [nM],drug sensitivity score [2]
CC[C@@H](C(=O)[C@@H](C)[C@@H](O)[C@H](C)[C@@H]1O[C@@H]([C@@H](CC)C(=O)O)CC[C@@H]1C)[C@H]1O[C@]2(C=C[C@@H](O)[C@]3(CC[C@@](C)([C@H]4CC[C@](O)(CC)[C@H](C)O4)O3)O2)[C@H](C)C[C@@H]1C [Salinomycin],1530,16.8
CC(C)n1nc(-c2ccc3oc(N)nc3c2)c2c(N)ncnc21 [Sapanisertib],75.9,11.4
CNC(=O)CN1CCC(Oc2cc3c(Nc4cccc(Cl)c4F)ncnc3cc2OC)CC1 [Sapitinib],> 1000,0
CN1CCN(CCOc2cc(OC3CCOCC3)c3c(Nc4c(Cl)ccc5c4OCO5)ncnc3c2)CC1 [Saracatinib],> 10000,5
CC1=C2C[C@H]3[C@@H](CC[C@@H]4C[C@H](NS(C)(=O)=O)CC[C@@]43C)[C@@H]2CC[C@@]2(C1)O[C@@H]1C[C@H](C)CN[C@H]1[C@H]2C [Saridegib],> 10000,0
CC[C@H](CO)Nc1nc(NCc2ccccc2)c2ncn(C(C)C)c2n1 [Seliciclib],> 10000,0
O=C(/C=C\n1cnc(-c2cc(C(F)(F)F)cc(C(F)(F)F)c2)n1)NNc1cnccn1 [Selinexor],> 10000,3.1
Cc1cc(F)c(C(=O)Nc2cccc(-c3nncn3C(C)C)n2)cc1-n1cnc(C2CC2)c1 [Selonsertib],> 1000,0
Cn1cnc2c(F)c(Nc3ccc(Br)cc3Cl)c(C(=O)NOCCO)cc21 [Selumetinib],> 10000,4.9
CN1CCN(C(=O)c2ccc3cc(CCNc4ncnc5ccc(C#N)cc45)ccc3c2)CC1 [Senexin B],> 1000,0.3
COCC[n+]1c2c(n(Cc3cnccn3)c1C)C(=O)c1ccccc1C2=O [Sepantronium bromide],70.5,25.4
Nc1nc2cc(-c3ccc4ncc(C(=O)N5CCOCC5)n4c3)ccc2o1 [Serabelisib],> 10000,3.3
O=C(O)c1ccc2c(c1)nc(Nc1cccc(Cl)c1)c1ccncc12 [Silmitasertib],> 10000,2.3
CCC(C)(C)C(=O)O[C@H]1C[C@@H](C)C=C2C=C[C@H](C)[C@H](CC[C@@H]3C[C@@H](O)CC(=O)O3)[C@H]21 [Simvastatin],> 10000,2.4
CO[C@H]1C[C@@H]2CC[C@@H](C)[C@@](O)(O2)C(=O)C(=O)N2CCCC[C@H]2C(=O)O[C@H]([C@H](C)C[C@@H]2CC[C@@H](O)[C@H](OC)C2)CC(=O)[C@H](C)/C=C(\C)[C@@H](O)[C@@H](OC)C(=O)[C@H](C)C[C@H](C)/C=C/C=C/C=C/1C [Sirolimus],> 100,4.2
COCCNCc1ccc(-c2cc3nccc(Oc4ccc(NC(=O)C5(C(=O)Nc6ccc(F)cc6)CC5)cc4F)c3s2)nc1 [Sitravatinib],> 2500,7.7
Cc1c(C(=O)Nc2ccc(N3C[C@@H](C)O[C@@H](C)C3)nc2)cccc1-c1ccc(OC(F)(F)F)cc1 [Sonidegib],> 10000,0
C=CCN(/C=C1/C(=O)O[C@H](COC)[C@@]2(C)C1=C(O)C(=O)C1=C2[C@H](OC(C)=O)C[C@]2(C)C(=O)CC[C@@H]12)CC=C [Sonolisib],> 10000,0
CNC(=O)c1cc(Oc2ccc(NC(=O)Nc3ccc(Cl)c(C(F)(F)F)c3)cc2)ccn1 [Sorafenib],> 1000,0
CN1CCN(c2nc(C3=C(c4c[nH]c5ccccc45)C(=O)NC3=O)c3ccccc3n2)CC1 [Sotrastaurin],> 10000,2.8
C=CC(=O)Nc1cccc(Nc2nc(Nc3ccc(OCCOC)cc3)ncc2F)c1 [Spebrutinib],> 1000,1.2
CC(C)n1cnc2c(NCCc3ccc(O)cc3)nc(-c3csc4ccccc34)nc21 [StemRegenin 1],> 10000,0.4
CCN(CC)CCNC(=O)c1c(C)[nH]c(/C=C2\C(=O)Nc3ccc(F)cc32)c1C [Sunitinib],> 1000,5.6
CC(C)(O)CC(=O)NCCn1ccc2ncnc(Nc3ccc(Oc4cccc(C(F)(F)F)c4)c(Cl)c3)c21 [TAK-285],> 2500,0.4
C[C@@H](NC(=O)c1ncnc(N)c1Cl)c1ncc(C(=O)Nc2cc(C(F)(F)F)c(Cl)cn2)s1 [TAK-580],> 10000,5.7
CCS(=O)(=O)c1cccc(-c2cc(C(=O)NC3CCN(C)CC3)c(C)c3[nH]c4ncc(C)cc4c23)c1 [TAK-901],265,5.9
Cc1cccc(-c2[nH]c(CNc3ccccc3F)nc2-c2ccc3ncnn3c2)n1 [TEW-7197],> 2500,2.1
Nc1nc(N)c2nc(-c3cccc(O)c3)c(-c3cccc(O)c3)nc2n1 [TG100-115],> 10000,2.5

Compound,absolute EC50 for viability [1] [nM],drug sensitivity score [2]
CC(C)Oc1ccc(-c2nn([C@@H](C)c3oc4ccc(F)cc4c(=O)c3-c3cccc(F)c3)c3ncnc(N)c23)cc1F [TGR-1202],> 2500,0
Cc1cc(C(C)Nc2ccccc2)c2nc(N3CCOCC3)cc(=O)n2c1 (stereo not given) [TGX-221],> 10000,0.3
Nc1nc(NC2CC2)cc(-c2cccc(Cl)c2Cl)n1 [TH588],> 25000,0
CN(C)C/C=C/C(=O)Nc1cccc(C(=O)Nc2cccc(Nc3ncc(Cl)c(-c4c[nH]c5ccccc45)n3)c2)c1 [THZ2],2710,11.1
Cc1ccccc1CN1C(=O)C2=C(CCN(Cc3ccccc3)C2)N2CCN=C12 [TIC10],> 25000,3.8
Clc1ccccc1C(c1ccccc1)(c1ccccc1)n1cccn1 [TRAM-34],> 1000,0
CC(=O)Nc1ccc(C(=O)Nc2ccccc2N)cc1 [Tacedinaline],> 1000,0
C=CC[C@@H]1/C=C(\C)C[C@H](C)C[C@H](OC)[C@H]2O[C@@](O)(C(=O)C(=O)N3CCCC[C@H]3C(=O)O[C@H](/C(C)=C/[C@@H]3CC[C@@H](O)[C@H](OC)C3)[C@H](C)[C@@H](O)CC1=O)[C@H](C)C[C@@H]2OC [Tacrolimus],> 10000,1.8
CN(C(=O)c1ccc(F)cc1C(F)(F)F)C1CCN(c2nnc(-c3ccnn3C)c3ccccc23)CC1 [Taladegib],> 10000,0
Cn1ncnc1[C@H]1c2n[nH]c(=O)c3cc(F)cc(c23)N[C@@H]1c1ccc(F)cc1 [Talazoparib],> 1000,1
C[C@@H]1CN(Cc2ccc(F)cc2)[C@@H](C)CN1C(=O)c1cc2c(C(=O)C(=O)N(C)C)cn(C)c2cc1Cl [Talmapimod],> 10000,0
COc1cc(Nc2ncc(F)c(Nc3ccc4c(n3)NC(=O)C(C)(C)O4)n2)cc(OC)c1OC [Tamatinib],> 10000,4.2
CC/C(=C(\c1ccccc1)c1ccc(OCCN(C)C)cc1)c1ccccc1 [Tamoxifen],> 10000,0
COc1cc2c(N3CCN(C(=O)Nc4ccc(OC(C)C)cc4)CC3)ncnc2cc1OCCCN1CCCCC1 [Tandutinib],> 1000,2.7
O[C@H]1CC[C@H](Nc2ncc3nc(Nc4c(F)cc(F)cc4F)n([C@H]4CCOC4)c3n2)CC1 [Tanzisertib],> 10000,0.3
C[C@@H](C(=O)O)c1ccc(-c2ccccc2)c(F)c1 [Tarenflurbil],> 10000,0
Cc1nc(-c2cn3c(n2)-c2ccc(-c4cnn(C(C)(C)C(N)=O)c4)cc2OCC3)n(C(C)C)n1 [Taselisib],> 1000,8.9
COc1cccc2c1c(O)c(C(=O)N(C)c1ccc(C(F)(F)F)cc1)c(=O)n2C [Tasquinimod],> 10000,0.8
CCN(c1cc(-c2ccc(CN3CCOCC3)cc2)cc(C(=O)NCc2c(C)cc(C)[nH]c2=O)c1C)C1CCOCC1 [Tazemetostat],> 10000,0
CNC(=O)c1cc(COc2nnc(Nc3ccc(Cl)cc3)c3ccoc23)ccn1 [Telatinib],> 10000,4.2
Cn1nnc2c(C(N)=O)ncn2c1=O [Temozolomide],> 100000,0
CO[C@H]1C[C@@H]2CC[C@@H](C)[C@@](O)(O2)C(=O)C(=O)N2CCCC[C@H]2C(=O)O[C@H]([C@H](C)C[C@@H]2CC[C@@H](OC(=O)C(C)(CO)CO)[C@H](OC)C2)CC(=O)[C@H](C)/C=C(\C)[C@@H](O)[C@@H](OC)C(=O)[C@H](C)C[C@H](C)/C=C/C=C/C=C/1C [Temsirolimus],> 100,7.4
COc1cc([C@@H]2c3cc4c(cc3[C@@H](O[C@@H]3O[C@@H]5CO[C@@H](c6cccs6)O[C@H]5[C@H](O)[C@H]3O)[C@H]3COC(=O)[C@H]23)OCO4)cc(OC)c1O [Teniposide],> 10000,0
CN1CCC(COc2cnc(-c3cccc(Cn4nc(-c5cccc(C#N)c5)ccc4=O)c3)nc2)CC1 [Tepotinib],> 1000,0.3
COc1cc2c(Nc3ccc(Cl)c(Cl)c3F)ncnc2cc1OC[C@@H]1C[C@@H]2CN(C)C[C@@H]2C1 [Tesevatinib],> 1000,4.1
O=C1CCC(N2C(=O)c3ccccc3C2=O)C(=O)N1 (stereo not given) [Thalidomide],> 10000,0
Nc1nc2[nH]cnc2c(=S)[nH]1 [Thioguanine],1180,9.2
